# Data published in US10842796B2, “Treatment of dementia” (WisTa Laboratories Ltd., priority 2016, dated 2020).
# Read-outs that look alike come from different tables or passages of the source.
# How the values were obtained:
# TDP-43 aggregates = conditions: 0.05 μM MT; SH-SYSY cells; cited from earlier work
# [1] = tested on: behavioural variant frontotemporal dementia (bvFTD); conditions: for ACE-R treatment effect mean (se) / FAQ treatment effect mean (se) / Fronto-temporal volume treatment effect mean (se): wrt 4 mg b.i.d. alone
# Description: (1) Addenbrooke's Cognitive Examination—revised (ACE-R) and (2) Functional Activities Questionnaire [FAQ] or MRI (with Bonferroni Holme correction)
# The effect of co-medication with symptomatic AD treatments which modify synaptic neurotransmission in the brain (acetylcholinesterase inhibitors or the NMDA antagonist “memantine”) was assessed. For brevity these treatments may be referred to as “AChEI/Mem” below.
# [2] = compatibility of LMTM tablets with AD treatments (HPLC recovery of LMT and MT); format: physicochemical
# Description: The effect of combining tablets of galantamine, memantine, donepezil or rivastigmine independently with LMTM was studied and LMTM was analysed in the resultant mixture.
# One LMTM tablet (100 mg) was added to a degassed 200 ml amber volumetric flask along with one prescription dose of each of the test drugs, as indicated in the table below, and 100 ml of diluent (degassed 0.1% formic acid). Flasks were given an argon headspace and shaken on a wrist action shaker for 40 minutes at 250 oscillations/min. Samples were then diluted to the graduation mark with diluent, given an argon headspace and inverted to mix. Subsamples of the resulting solution were centrifuged at 13,000 rpm for 5 minutes to remove any undissolved excipients and the supernatant placed in an amber HPLC vial and injected into a high performance liquid chromatography (HPLC) system (Agilent 1260) to separate LMT and MT. LMT and MT peaks were identified by absorbance at 255 nm with retention times of 5.5 and 14 minutes, respectively (FIG. 11).
# [3] = 14-day and 25-day repeat-dose studies in healthy volunteers (discoloration); format: in vivo, human; conditions: 4 mg BID lowest dose with comparable discoloration
# [4] = 4 mg b.i.d. versus 100 mg b.i.d.
# [5] = ANCOVA model, 4 mg b.i.d. as add-on to AChEI/Mem
# [6] = ANCOVA model, 100 mg b.i.d. alone
# [7] = ANCOVA model, 100 mg b.i.d. as add-on to AChEI/Mem
# [8] = MMRM model, 4 mg b.i.d. as add-on to AChEI/Mem
# [9] = MMRM model, 100 mg b.i.d. alone
# [10] = MMRM model, 100 mg b.i.d. as add-on to AChEI/Mem
# [11] = 100 mg LMTM + 6 mg rivastigmine
# [12] = 100 mg LMTM + 12 mg galantamine
# [13] = 100 mg LMTM tablet, no addition, HPLC 255 nm
compound,measurement,setting,value
Methylthioninium [MT],reduction of number of intracellular TDP-43 aggregates,TDP-43 aggregates,50%
"CN(C)c1ccc2c(c1)Sc1cc(N(C)C)ccc1N2 [LMTM, leuco-methylthioninium bis(hydromethanesulfonate)]",decline on ACE-R and MMSE compared with historical controls,[1]; 4 mg b.i.d. and 100 mg b.i.d.,significantly less than historical controls
same,"ADCS-CGIC, FRS, MMSE, UPDRS (safety outcome)",[1]; [4],no difference
same,"primary analysis models for ACE-R, FAQ and Whole Brain Volume",[1]; [4],no difference
same,"12 m change in MMSE (decline), present study",[1]; 4 mg bd,3.4 ± 0.5
same,"12 month change in ACE-R (decline), present study",[1]; 4 mg bd,10.4 ± 1.4
same,"12 m change in MMSE (decline), present study",[1]; 100 mg bd,3.0 ± 0.7
same,"12 month change in ACE-R (decline), present study",[1]; 100 mg bd,10.7 ± 1.4
same,ACE-R treatment effect mean (se),[1]; [5],6.52 (2.42)
same,FAQ treatment effect mean (se),[1]; [5],2.15 ± 1.21
same,Fronto-temporal volume treatment effect mean (se),[1]; [5],356 (237)
same,ACE-R treatment effect mean (se),[1]; [6],1.35 (1.71)
same,FAQ treatment effect mean (se),[1]; [6],−0.11 ± 0.87
same,Fronto-temporal volume treatment effect mean (se),[1]; [6],−98 (173)
same,ACE-R treatment effect mean (se),[1]; [7],9.69 (2.73)
same,FAQ treatment effect mean (se),[1]; [7],1.90 ± 1.37
same,Fronto-temporal volume treatment effect mean (se),[1]; [7],481 (258)
same,ACE-R treatment effect mean (se),[1]; [8],7.17 ± 3.25
same,FAQ treatment effect mean (se),[1]; [8],2.08 ± 1.31
same,Fronto-temporal volume treatment effect mean (se),[1]; [8],240 (291)
same,ACE-R treatment effect mean (se),[1]; [9],−1.12 ± 2.28
same,FAQ treatment effect mean (se),[1]; [9],−0.03 ± 0.92
same,Fronto-temporal volume treatment effect mean (se),[1]; [9],−4 (207)
same,ACE-R treatment effect mean (se),[1]; [10],5.65 ± 3.57
same,FAQ treatment effect mean (se),[1]; [10],2.36 ± 1.45
same,Fronto-temporal volume treatment effect mean (se),[1]; [10],278 (313)
same,safety profile,[1]; data not shown,raised no major concerns
same,"FAQ, MMSE and fronto-temporal volume, LMTM in combination with AD treatments versus LMTM alone",[1]; post hoc exploratory analyses,directionally supportive benefits
same,"ACE-R, LMTM in combination with off-label AD treatments (AChEI/Mem) versus LMTM alone",[1]; post hoc exploratory analyses with AD-comedication status and severity as covariates,significant benefits
same,LMT (% difference from control*),[2]; [11],5.64%
same,LMT (area),[2]; [11],23302.4 area
same,MT (% difference from control*),[2]; [11],2.14%
same,MT (area),[2]; [11],320.6 area
same,LMT (% difference from control*),[2]; 100 mg LMTM + 10 mg donepezil,−2.58%
same,LMT (area),[2]; 100 mg LMTM + 10 mg donepezil,22058.4 area
same,MT (% difference from control*),[2]; 100 mg LMTM + 10 mg donepezil,−6.58%
same,MT (area),[2]; 100 mg LMTM + 10 mg donepezil,313.9205 area
same,LMT (% difference from control*),[2]; 100 mg LMTM + 10 mg memantine,2.19%
same,LMT (area),[2]; 100 mg LMTM + 10 mg memantine,22642.3 area
same,MT (% difference from control*),[2]; 100 mg LMTM + 10 mg memantine,1.10%
same,MT (area),[2]; 100 mg LMTM + 10 mg memantine,336 area
same,LMT (% difference from control*),[2]; [12],−1.37%
same,LMT (area),[2]; [12],22157.4 area
same,MT (% difference from control*),[2]; [12],−14.90%
same,MT (area),[2]; [12],332.3 area
same,LMT (area),[2]; [13],22465.7 area
same,MT (area),[2]; [13],390.5473 area
same,amount of oxidised MT after mixing,[2]; after mixing with any of the AChEIs or memantine,not increased
same,LMTM found in the oxidised form,[2]; following HPLC analysis,Less than 2%
same,urine and stool discoloration,[3],associated with urine and stool discoloration
